Test results reported in patent US8883826B2, “Alkynyl derivatives as modulators of metabotropic glutamate receptors” (Addex Pharma SA, priority 2004, dated 2014).

Key:
mGluR5 = molecular target: T1, mGluR5 (Rattus norvegicus, UniProt P31424); test: mGluR5 binding assay ([3H]-MPEP radioligand competition); details: competition with 3 nM [3H]-MPEP, rat brain cortical membranes, 1 h at 4 °C; mean of at least three independent experiments in duplicate
T1 construct: tissue Charles River Laboratories; host or cells: rat brain cortex membranes (Sprague-Dawley)
T1 sequence (P31424 21-1203): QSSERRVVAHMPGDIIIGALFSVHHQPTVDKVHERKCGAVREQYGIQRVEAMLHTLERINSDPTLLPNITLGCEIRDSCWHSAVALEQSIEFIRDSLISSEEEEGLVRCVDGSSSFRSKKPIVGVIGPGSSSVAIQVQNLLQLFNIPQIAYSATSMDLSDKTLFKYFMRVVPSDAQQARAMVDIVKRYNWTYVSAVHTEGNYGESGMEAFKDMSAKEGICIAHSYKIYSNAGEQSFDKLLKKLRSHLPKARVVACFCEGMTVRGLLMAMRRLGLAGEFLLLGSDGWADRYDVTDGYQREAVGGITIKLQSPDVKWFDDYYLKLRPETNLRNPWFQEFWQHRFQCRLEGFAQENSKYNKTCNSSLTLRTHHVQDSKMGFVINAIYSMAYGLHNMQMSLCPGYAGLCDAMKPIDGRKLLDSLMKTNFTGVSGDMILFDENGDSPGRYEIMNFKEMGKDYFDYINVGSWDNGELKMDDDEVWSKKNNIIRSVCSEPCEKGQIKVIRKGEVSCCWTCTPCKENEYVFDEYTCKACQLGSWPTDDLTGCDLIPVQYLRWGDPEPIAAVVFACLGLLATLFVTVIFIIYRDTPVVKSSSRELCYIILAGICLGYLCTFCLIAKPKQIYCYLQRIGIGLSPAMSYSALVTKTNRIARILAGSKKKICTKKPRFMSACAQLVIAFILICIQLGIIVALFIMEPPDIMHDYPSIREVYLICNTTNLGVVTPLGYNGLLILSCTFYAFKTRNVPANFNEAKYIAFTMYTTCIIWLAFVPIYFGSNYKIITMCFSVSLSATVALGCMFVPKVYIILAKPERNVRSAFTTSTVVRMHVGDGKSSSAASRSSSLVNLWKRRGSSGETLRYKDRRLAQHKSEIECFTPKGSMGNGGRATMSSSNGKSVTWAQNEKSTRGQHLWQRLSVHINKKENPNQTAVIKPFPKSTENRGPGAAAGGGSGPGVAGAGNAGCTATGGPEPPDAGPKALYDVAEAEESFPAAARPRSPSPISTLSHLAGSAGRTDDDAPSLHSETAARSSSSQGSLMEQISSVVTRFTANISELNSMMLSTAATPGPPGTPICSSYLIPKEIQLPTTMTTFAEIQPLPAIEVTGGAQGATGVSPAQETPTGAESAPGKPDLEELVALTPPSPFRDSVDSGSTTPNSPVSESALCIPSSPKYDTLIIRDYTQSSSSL
In short: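 Rat cortical membranes (50 μg) were incubated 1 h at 4 °C with 3 nM [3H]-MPEP and compound (0.003 nM-30 μM, 8 points) in HEPES buffer pH 7.4 with Mg2+, Ca2+ and NaCl. 30 μM MPEP defined non-specific binding, and bound label was counted after filtration. IC50 came from non-linear regression, as the mean of ≥3 experiments run in duplicate.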

| SMILES | IC50 (mGluR5) [µM] | melting point [°C] |
| --- | --- | --- |
| Cc1nc(C#CCCc2ccccc2)c[nH]1 [Example 11, 2-Methyl-4-(4-phenylbut-1-ynyl)-1H-imidazole] | – | 124 to 126 |
| O=c1n(CCC#Cc2ccccn2)nc2ccccn12 [Example 39, 2-(4-(Pyridin-2-yl)but-3-ynyl)-[1,2,4]triazolo[4,3-a]pyridin-3(2H)-one] | – | 95.5 to 96 |
| Cn1c(CCC#Cc2cccc(CF)n2)nc2cccc(Cl)c21 [Example 191, 7-Chloro-2-(4-(6-(fluoromethyl)pyridin-2-yl)but-3-ynyl)-1-methyl-1H-benzo[d]imidazole] | < 10 | – |
| CC(C)n1c(CCC#Cc2ccccn2)nc2ccccc21 [Example 194, 1-Isopropyl-2-(4-(pyridin-2-yl)but-3-ynyl)-1H-benzo[d]imidazole] | < 10 | – |
| Cn1c(CCC#Cc2ccccn2)nc2cc(F)ccc21 [Example 197, 5-Fluoro-1-methyl-2-(4-(pyridin-2-yl)but-3-ynyl)-1H-benzo[d]imidazole] | < 10 | – |
| O=c1ccccn1CCC#Cc1ccccn1 [Example 198, 1-(4-(Pyridin-2-yl)but-3-ynyl)pyridin-2(1H)-one] | < 10 | – |
| CN(CCC#Cc1ccccn1)C(=O)c1cccc(F)c1 [Example 200, 3-Fluoro-N-methyl-N-(4-(pyridin-2-yl)but-3-ynyl)benzamide] | < 10 | – |
| CN(CCC#Cc1ccccn1)C(=O)c1ccccc1C(F)(F)F [Example 202, N-Methyl-N-(4-(pyridin-2-yl)but-3-ynyl)-2-(trifluoromethyl)benzamide] | < 10 | – |
| CN(CCC#Cc1ccccn1)C(=O)c1ccccc1Cl [Example 204, 2-Chloro-N-methyl-N-(4-(pyridin-2-yl)but-3-ynyl)benzamide] | < 10 | – |
| CN(CCC#Cc1ccccn1)C(=O)c1cccc(Cl)c1 [Example 205, 3-Chloro-N-methyl-N-(4-(pyridin-2-yl)but-3-ynyl)benzamide] | < 10 | – |
| CN(CCC#Cc1ccccn1)S(=O)(=O)c1ccc(F)cc1 [Example 206, 4-Fluoro-N-methyl-N-(4-(pyridin-2-yl)but-3-ynyl)benzenesulfonamide] | < 10 | – |
| CN(CCC#Cc1ccccn1)S(=O)(=O)c1ccccc1Cl [Example 207, 2-Chloro-N-methyl-N-(4-(pyridin-2-yl)but-3-ynyl)benzenesulfonamide] | < 10 | – |
| CN(CCC#Cc1ccccn1)C(=O)c1ccccc1 [Example 211, N-Methyl-N-(4-(pyridin-2-yl)but-3-ynyl)benzamide] | < 10 | – |
| Cc1ccccc1C(=O)N(C)CCC#Cc1ccccn1 [Example 212, N,2-Dimethyl-N-(4-(pyridin-2-yl)but-3-ynyl)benzamide] | < 10 | – |
| CN(CCC#Cc1ccccn1)C(=O)c1ccccc1F [Example 213, 2-Fluoro-N-methyl-N-(4-(pyridin-2-yl)but-3-ynyl)benzamide] | < 10 | – |
| Cc1cccc(C(=O)N(C)CCC#Cc2ccccn2)c1 [Example 215, N,3-Dimethyl-N-(4-(pyridin-2-yl)but-3-ynyl)benzamide] | < 10 | – |
| COc1ccccc1C(=O)N(C)CCC#Cc1ccccn1 [Example 216, 2-Methoxy-N-methyl-N-(4-(pyridin-2-yl)but-3-ynyl)benzamide] | < 10 | – |
| CN(CCC#Cc1ccccn1)C(=O)c1cccc(F)c1F [Example 217, 2,3-Difluoro-N-methyl-N-(4-(pyridin-2-yl)but-3-ynyl)benzamide] | < 10 | – |
| Cc1noc(C)c1S(=O)(=O)N(C)CCC#Cc1ccccn1 [Example 219, N,3,5-Trimethyl-N-(4-(pyridin-2-yl)but-3-ynyl)isoxazole-4-sulfonamide] | < 10 | – |
| C(#Cc1ccccn1)CCNc1nc2ccccc2s1 [Example 220, N-(4-(Pyridin-2-yl)but-3-ynyl)benzo[d]thiazol-2-amine] | < 10 | – |
| Cn1c(=O)n(CCCC#Cc2ccccn2)c2ccccc21 [Example 221, 1-Methyl-3-(5-(pyridin-2-yl)pent-4-ynyl)-1H-benzo[d]imidazol-2(3H)-one] | < 10 | – |
| FCc1cccc(C#CCCc2cn3cccc(-c4ccccc4)c3n2)n1 [Example 227, 2-(4-(6-(Fluoromethyl)pyridin-2-yl)but-3-ynyl)-8-phenyl-imidazo[1,2-a]pyridine] | < 10 | – |
| Cc1csc(C#CCCn2nc3ccccc3n2)n1 [Example 229, 2-(4-(4-Methylthiazol-2-yl)but-3-ynyl)-2H-benzo[d][1,2,3]triazole] | – | 78 to 80 |
| O=c1c2ccccc2cnn1CCCCC#Cc1ccccn1 [Example 243, 2-(6-(Pyridin-2-yl)hex-5-ynyl)phthalazin-1(2H)-one] | < 10 | – |
| O=C(NCCC#Cc1cccc(CF)n1)c1ccccc1Cl [Example 247, 2-Chloro-N-(4-(6-(fluoromethyl)pyridin-2-yl)but-3-ynyl)benzamide] | < 10 | – |
| FCc1cccc(C#CCCn2ncc(-c3ccc(F)cc3)n2)n1 [Example 250, 2-(Fluoromethyl)-6-(4-(4-(4-fluorophenyl)-2H-1,2,3-triazol-2-yl)but-1-ynyl)pyridine] | – | 84 to 86 |
| Cc1cc(F)ccc1NC(=O)CCC#Cc1cccc(CF)n1 [Example 252, 5-(6-(Fluoromethyl)pyridin-2-yl)-N-(4-fluoro-2-methyl-phenyl)pent-4-ynamide] | – | 122 to 125 |
| FCc1cccc(C#CCCn2cc(-c3ccc(F)cc3)nn2)n1 [Example 254, 2-(Fluoromethyl)-6-(4-(4-(4-fluorophenyl)-1H-1,2,3-triazol-1-yl)but-1-ynyl)pyridine] | – | 100 to 103 |
| Cc1c(-c2ccc(F)cc2)nnn1CCC#Cc1ccccn1 [Example 258, 2-(4-(4-(4-Fluorophenyl)-5-methyl-1H-1,2,3-triazol-1-yl)but-1-ynyl)pyridine] | – | 130 to 131 |

The next lines start with the values.

| IC50 (mGluR5) [µM] | melting point [°C] | SMILES |
| --- | --- | --- |
| < 0.05 | 143.5 to 145 | C(#Cc1ccccn1)CCc1nc2ccccc2o1.Cl [Example 8, 2-(4-(Pyridin-2-yl)but-3-ynyl)benzo[d]oxazole Hydrochloride] |
| < 10 | 68 to 71 | CN(C(=O)CCC#Cc1ccccn1)c1ccccc1 [Example 12, N-Methyl-N-phenyl-5-(pyridin-2-yl)pent-4-ynamide] |
| < 10 | 71 to 73 | C(#Cc1ccccn1)CCn1nnc(-c2ccccc2)n1 [Example 32, 2-(4-(5-Phenyl-2H-tetrazol-2-yl)but-1-ynyl)pyridine] |
| < 1 | 189.9 to 190.2 | O=C(CCC#Cc1ccccn1)Nc1ccc(F)cc1 [Example 34, N-(4-Fluorophenyl)-5-(pyridine-2-yl)pent-4-ynamide] |
| < 0.05 | 98.5 to 99.4 | C(#Cc1ccccn1)CCc1nc2ccccc2s1 [Example 35, 2-(4-(Pyridin-2-yl)but-3-ynyl)benzo[d]thiazole] |
| < 10 | 101.5 to 102.2 | Clc1ccc2nc(CCC#Cc3ccccn3)oc2c1 [Example 36, 6-Chloro-(2-(4-pyridin-2-yl)but-3-ynyl)benzo[d]oxazole] |
| < 10 | 100.1 to 101 | Fc1ccc2oc(CCC#Cc3ccccn3)nc2c1 [Example 37, 5-Fluoro-(2-(4-pyridin-2-yl)but-3-ynyl)benzo[d]oxazole] |
| < 10 | 68 to 69 | Fc1ccc(C#CCCC#Cc2ccccn2)cc1 [Example 38, 2-(6-(4-Fluorophenyl)hexa-1,5-diynyl)pyridine] |
| < 10 | 75 to 77 | Clc1ccc(-c2noc(CCC#Cc3ccccn3)n2)cc1 [Example 47, 2-(4-(3-(4-Chlorophenyl)-1,2,4-oxadiazol-5-yl)but-1-ynyl)pyridine] |
| < 10 | 76 to 78 | C(#Cc1ccccn1)CCc1nc(-c2ccc3ccccc3c2)no1 [Example 51, 2-(4-(3-(Naphthalen-2-yl)-1,2,4-oxadiazol-5-yl)but-1-ynyl)pyridine] |
| < 10 | 77 to 78 | Clc1ccc(-c2noc(CCC#Cc3ccccn3)n2)c(Cl)c1 [Example 57, 2-(4-(3-(2,4-Dichlorophenyl)-1,2,4-oxadiazol-5-yl)but-1-ynyl)pyridine] |
| < 10 | – | O=C(NCCC#Cc1cccc(CF)n1)c1c(Cl)cccc1Cl [Example 189, 2,6-Dichloro-N-(4-(6-(fluoromethyl)pyridin-2-yl)but-3-ynyl)benzamide] |
| < 0.5 | – | Cn1c(CCC#Cc2ccccn2)nc2cccc(Cl)c21 [Example 192, 7-Chloro-1-methyl-2-(4-(pyridin-2-yl)but-3-ynyl)-1H-benzo[d]imidazole] |
| < 0.5 | – | CN(CCC#Cc1cccc(CF)n1)C(=O)c1ccccc1Cl [Example 208, 2-Chloro-N-(4-(6-(fluoromethyl)pyridin-2-yl)but-3-ynyl)-N-methylbenzamide] |
| < 0.05 | – | CN(CCC#Cc1cccc(CF)n1)S(=O)(=O)c1ccccc1Cl [Example 209, 2-Chloro-N-(4-(6-(fluoromethyl)pyridin-2-yl)but-3-ynyl)-N-methylbenzene sulfonamide] |
| < 0.5 | – | CN(CCC#Cc1ccccn1)C(=O)c1c(Cl)cccc1Cl [Example 218, 2,6-Dichloro-N-methyl-N-(4-(pyridin-2-yl)but-3-ynyl)benzamide] |
| < 0.05 | – | FCc1cccc(C#CCCc2cn3cccc(Br)c3n2)n1 [Example 225, 8-Bromo-2-(4-(6-(fluoromethyl)pyridin-2-yl)but-3-ynyl)-imidazo[1,2-a]pyridine] |
| < 0.05 | – | O=C(OCCC#Cc1ccccn1)c1ccccc1Cl [Example 235, 4-(Pyridin-2-yl)but-3-ynyl 2-chlorobenzoate] |
| < 0.05 | – | O=C(OCCC#Cc1ccccn1)c1cccc(Cl)c1 [Example 236, 4-(Pyridin-2-yl)but-3-ynyl 3-chlorobenzoate] |
